Data on 20 compounds can be found in ChEMBL document CHEMBL5576110, “Identification of AdipoRon analogues as novel activators of AMPK for the treatment of type 2 diabetes” (RSC Med Chem, 2024).

The nature of data set [1]: Stability in mouse liver microsomes assessed as parent compound remaining preincubated for 5 mins followed by NADPH addition measured after 45 mins by LC/MS analysis. The data set is classed as ADME, Microsome. The following applies: time 50 min, read-out: Stability. (Microsomes from liver hold many membrane-bound enzymes, among them those of drug oxidation.)
In data set [2] the test system is HepG2. The data set is described as follows: Cytotoxicity against human HepG2 cells at 5 to 20 uM measured after 72 hrs by MTT assay. The following applies: hepg2, 72 h, dose 5-20 µM. In kind it is toxicity, cell-based. A general note: Formazan colour is commonly taken as a measure of viable cells.
Data set [3] in a line: Stability in human liver microsomes assessed as parent compound remaining preincubated for 5 mins followed by NADPH addition measured after 45 mins by LC/MS analysis. The data set is classed as ADME, Microsome. Particulars: time 50 min, read-out: Stability.
Data set [4] in a line: Toxicity in db/db mouse assessed as effect on body weight at 100 mg/kg, IG administered once daily for 2 to 6 weeks measured weekly during compound dosing. The data set is classed as organism-based. The following applies: in vivo, po, time 2-6 weeks.
Data set [5] in a line: Intrinsic clearance in mouse liver microsomes preincubated for 5 mins followed by NADPH addition measured after 45 mins by LC/MS analysis. In kind it is ADME, Microsome. The following applies: time 50 min, read-out: CLH.
For data set [6], the system named is Mus musculus. The data set is described as follows: Anti-hyperglycemic activity in db/db mouse assessed as improvement in insulin resistance at 100 mg/kg, IG administered once daily for 6 weeks by insulin tolerance test. In kind it is functional, organism-based.
Data set [7] in a line: Half life in mouse liver microsomes by LC/MS analysis. The data set is classed as ADME, Microsome.
Data set [8] has as its system C2C12. The data set is described as follows: Cytotoxicity against mouse C2C12 cells at 5 to 20 uM measured after 72 hrs by MTT assay. The data set is classed as toxicity, cell-based. The following applies: c2c12, 72 h, dose 5-20 µM.
Data set [9] has as its target T1, Acetyl-CoA carboxylase (Homo sapiens) (UniProt Q13085+O00763). The data set is described as follows: Induction of ACC phosphorylation in human HepG2 cells measured at 10 uM by Western blot analysis. The data set is classed as cell-based. The following applies: filed as activator, time 0.5-12 hrs, TDE = time-dependent effect. (A western blot detects proteins with antibodies after separation by electrophoresis.)

Data set [10] deals with C2C12. The data set is described as follows: Agonist activity at adiponectin receptor in mouse C2C12 cells assessed as increase in AMPK phosphorylation at 10 uM measured after 2 hrs by Western blot analysis. The data set is classed as cell-based. Particulars: filed as agonist.
The subject of data set [11] is C2C12. The data set is described as follows: Agonist activity at adiponectin receptor in mouse C2C12 cells assessed as increase in ACC phosphorylation measured after 2 hrs by Western blot analysis. The data set is classed as cell-based. Particulars: filed as agonist, dose 0.1-20 µM.
Data set [12] relates to Mus musculus. The data set is described as follows: Hypoglycemic activity in IG dosed lean C57BL/6J mouse assessed as reduction in blood glucose level administered 2 hrs prior to glucose challenge measured up to 90 mins by IPGTT. The data set is classed as functional, organism-based. Particulars: dose 50-100 mg/kg, time 3.5 hrs.
Data set [13] relates to Mus musculus. The data set can be described thus: Anti-hyperglycemic activity in db/db mouse assessed as reduction in blood glucose level at 100 mg/kg, IG administered once daily for 2 to 6 weeks measured weekly during compound dosing. The data set is classed as functional, organism-based. The following applies: time 2-6 weeks.
In data set [14] the test system is C2C12. The data set is described as follows: Induction of glucose consumption in mouse C2C12 cells at 10 uM measured after 12 hrs (reference value: 100%). In kind it is functional.
In data set [15] the target is 5'-AMP-activated protein kinase (Mus musculus) (UniProt Q5EG47+Q8BRK8+Q6PAM0+O54950+Q91WG5+Q9R078+Q8BGM7). The data set is described as follows: Induction of AMPK phosphorylation in mouse C2C12 cells at 10 uM measured after 1 to 12 hrs by Western blot analysis. The data set is classed as cell-based. The following applies: filed as activator, time 1-12 hrs.
The nature of data set [16]: Half life in human liver microsomes by LC/MS analysis. The data set is classed as ADME, Microsome.
The subject of data set [17] is HepG2. The data set can be described thus: Induction of AMPK phosphorylation in human HepG2 cells at 0.1 to 20 uM measured after 2 hrs by Western blot analysis. The following applies: filed as activator, dose 0.1-20 µM. The data set is classed as cell-based.
Data set [18] relates to HepG2. The data set is described as follows: Induction of AMPK in human HepG2 cells at 10 uM measured after 0.5 to 12 hrs by Western blot analysis. The data set is classed as cell-based. Particulars: filed as activator, time 0.5-12 hrs.
For data set [19], the target named is T1, Acetyl-CoA carboxylase (Homo sapiens). The data set can be described thus: Induction of ACC phosphorylation in human HepG2 cells measured after 2 hrs by Western blot analysis. In kind it is cell-based. Particulars: filed as activator, dose 0.1-20 µM.
Data set [20] is described as follows: Intrinsic clearance in human liver microsomes preincubated for 5 mins followed by NADPH addition measured after 45 mins by LC/MS analysis. In kind it is ADME, Microsome. Particulars: time 50 min, read-out: CLH.
Data set [21] relates to Mus musculus. The data set is described as follows: Hypoglycemic activity in lean C57BL/6J mouse assessed as reduction in blood glucose level at 100 mg/kg, IG administered 2 hrs prior to glucose challenge measured up to 90 mins by IPGTT. In kind it is functional, organism-based. The following applies: time 3.5 hrs.
Data set [22] is described as follows: Agonist activity at adiponectin receptor in mouse C2C12 cells assessed as increase in AMPK phosphorylation. The data set is classed as cell-based.
Data set [23] has as its system Mus musculus. The data set can be described thus: Hypoglycemic activity in lean C57BL/6J mouse assessed as reduction in blood glucose level at 10 mg/kg, IG administered 2 hrs prior to glucose challenge measured up to 90 mins by IPGTT. In kind it is functional, organism-based. Particulars: time 3.5 hrs.

pEC50: −log10 of the molar value. Active and inactive are the calls of the source. No cut-off for these calls is given here.

As a reminder, the half-life is the time in which the quantity being followed falls by half. Read a high half-life as slow decline. As a reminder, the pEC50 is −log10 of the EC50, conventionally taken in molar units.

On to `COc1cc(/C=C/C(=O)N2CCN(C(=O)C(C)(C)Oc3ccc(C(=O)c4ccc(Cl)cc4)cc3)CC2)ccc1O`, for which the remaining at 0.75 h in [1] was determined as 38%; in data set [3], 69%. Also, the Activity result is “Non-Toxic” in data set [2]; “Non-Toxic” in data set [4]; “Non-Toxic” in data set [8]; “Tde” in data set [9]; “Dose-Dependent Effect” in [11]; “Dose-Dependent Effect” in data set [12]. Moreover, the figures for the Activity in data set [14] and in data set [19] were 141.7% and “Dose-Dependent Effect”, respectively. Further, the CLint scaled was 156 mL/min/kg in [5] and 21 mL/min/kg in [20]. Further, the outcome in data set [6], in data set [10], in data set [13], in [15], in data set [17] and in [18] was Active. For the same compound, the half-life was 33 min in data set [7] and 87 min in data set [16].

As for `COc1ccc(/C=C/C(=O)NC2CCN(C(=O)C(C)(C)Oc3ccc(C(=O)c4ccccc4)cc3)CC2)cc1OC`, the outcome in [10] was Active. For the same compound, the Activity in [14] is 116.7%.

With `O=C(COc1ccc(C(=O)c2ccccc2)cc1)NC1CCN(Cc2ccccc2)CC1`, the result in [21] and in data set [10] was Active. In addition, the pEC50 in data set [22] was approximately 5.00. Moreover, the Activity in [14] was 135.2%.

Regarding `CC(C)(Oc1ccc(C(=O)c2ccccc2)cc1)C(=O)N1CCN(C(=O)/C=C/c2ccccc2)CC1`, in data set [10], the outcome was Active. The Activity in [14] worked out at 132.5%.

As for `CC(C)(Oc1ccc(C(=O)c2ccccc2)cc1)C(=O)N1CCC(NC(=O)/C=C/c2ccccc2)CC1`, the outcome in data set [10] was Active. For the same compound, in [14], the Activity came to 117.6%.

On to `CC(C)(Oc1ccc(C(=O)c2ccc(Cl)cc2)cc1)C(=O)N1CCN(C(=O)/C=C/c2ccccc2)CC1`, for which the outcome in data set [10] was Active. Moreover, the Activity in data set [14] was found to be 129%.

Consider `COc1cc(/C=C/C(=O)N2CCC(NC(=O)C(C)(C)Oc3ccc(C(=O)c4ccc(Cl)cc4)cc3)CC2)ccc1O`, for which, in data set [10], the result was Active. Moreover, in data set [14], the Activity turned out to be 126.1%.

With `CC(C)(Oc1ccc(C(=O)c2ccc(Cl)cc2)cc1)C(=O)N1CCC(NC(=O)/C=C/c2ccccc2)CC1`, the result in data set [10] was Active. The compound also came in with an Activity in data set [14] of 113%.

Take `CC(C)(Oc1ccc(C(=O)c2ccc(Cl)cc2)cc1)C(=O)NC1CCN(C(=O)/C=C/c2ccccc2)CC1`: the outcome in data set [10] was Active. The Activity in data set [14] is recorded as 117.3%.

On to `COc1ccc(/C=C/C(=O)N2CCN(C(=O)C(C)(C)Oc3ccc(C(=O)c4ccccc4)cc3)CC2)cc1OC`, for which the outcome in data set [10] was Active. Also, the Activity in [14] worked out at 135.8%.

For `COc1ccc(/C=C/C(=O)N2CCC(NC(=O)C(C)(C)Oc3ccc(C(=O)c4ccccc4)cc3)CC2)cc1OC`, the result in [10] was Active. In addition, the Activity in data set [14] was 104.5%.

As to `O=C(c1ccc(F)cc1)C1CCN(CCn2c(=O)[nH]c3ccccc3c2=O)CC1` [KETANSERIN], the values for the remaining at 0.75 h in data set [1] and in data set [3] were 29% and 31%, respectively. Also, in data set [5], the CLint scaled was found to be 245 mL/min/kg. Further, the half-life came to 26 min in data set [7] and 28 min in data set [16].

`COc1cc(/C=C/C(=O)N2CCN(C(=O)C(C)(C)Oc3ccc(C(=O)c4ccccc4)cc3)CC2)ccc1O`: the result in data set [10] was Active. In data set [14], this compound yielded an Activity of 136.4%.

Turning to `COc1ccc(/C=C/C(=O)N2CCC(NC(=O)C(C)(C)Oc3ccc(C(=O)c4ccc(Cl)cc4)cc3)CC2)cc1OC`, the result in [10] was Active. In data set [14], this compound came in with an Activity of 125.1%.

In the case of `COc1ccc(/C=C/C(=O)NC2CCN(C(=O)C(C)(C)Oc3ccc(C(=O)c4ccc(Cl)cc4)cc3)CC2)cc1OC`, in data set [10], the outcome was Active. Moreover, in [14], the Activity is recorded as 118.3%.

For `COc1ccc(/C=C/C(=O)N2CCN(C(=O)C(C)(C)Oc3ccc(C(=O)c4ccc(Cl)cc4)cc3)CC2)cc1OC`, the result in data set [10] was Active. Besides, in [14], the Activity was determined as 138.5%.

As for `O[C@@H]1CO[C@H]2[C@@H]1OC[C@H]2Oc1nc2nc(-c3ccc(-c4ccccc4)cc3)c(Cl)cc2[nH]1`, the result in data set [23] was Active.

Take `COc1cc(/C=C/C(=O)NC2CCN(C(=O)C(C)(C)Oc3ccc(C(=O)c4ccccc4)cc3)CC2)ccc1O`: the outcome in data set [10] was Active. The Activity in data set [14] amounted to 128.5%.

As to `CC(C)(Oc1ccc(C(=O)c2ccccc2)cc1)C(=O)NC1CCN(C(=O)/C=C/c2ccccc2)CC1`, the result in data set [10] was Active. In data set [14], this compound gave an Activity of 121.3%.

Turning to `COc1cc(/C=C/C(=O)N2CCC(NC(=O)C(C)(C)Oc3ccc(C(=O)c4ccccc4)cc3)CC2)ccc1O`, in data set [10], the outcome was Active. In [14], the Activity is 115.2%.
